The target in this experiment is T1, human TRPM8 (Homo sapiens, UniProt Q7Z2W7).
T1 construct: expressed in transfected cells; host or cells: Chinese hamster ovary (CHO) cells, T-REx tetracycline-inducible system, co-transfected with aequorin
T1 sequence (Q7Z2W7 whole entry): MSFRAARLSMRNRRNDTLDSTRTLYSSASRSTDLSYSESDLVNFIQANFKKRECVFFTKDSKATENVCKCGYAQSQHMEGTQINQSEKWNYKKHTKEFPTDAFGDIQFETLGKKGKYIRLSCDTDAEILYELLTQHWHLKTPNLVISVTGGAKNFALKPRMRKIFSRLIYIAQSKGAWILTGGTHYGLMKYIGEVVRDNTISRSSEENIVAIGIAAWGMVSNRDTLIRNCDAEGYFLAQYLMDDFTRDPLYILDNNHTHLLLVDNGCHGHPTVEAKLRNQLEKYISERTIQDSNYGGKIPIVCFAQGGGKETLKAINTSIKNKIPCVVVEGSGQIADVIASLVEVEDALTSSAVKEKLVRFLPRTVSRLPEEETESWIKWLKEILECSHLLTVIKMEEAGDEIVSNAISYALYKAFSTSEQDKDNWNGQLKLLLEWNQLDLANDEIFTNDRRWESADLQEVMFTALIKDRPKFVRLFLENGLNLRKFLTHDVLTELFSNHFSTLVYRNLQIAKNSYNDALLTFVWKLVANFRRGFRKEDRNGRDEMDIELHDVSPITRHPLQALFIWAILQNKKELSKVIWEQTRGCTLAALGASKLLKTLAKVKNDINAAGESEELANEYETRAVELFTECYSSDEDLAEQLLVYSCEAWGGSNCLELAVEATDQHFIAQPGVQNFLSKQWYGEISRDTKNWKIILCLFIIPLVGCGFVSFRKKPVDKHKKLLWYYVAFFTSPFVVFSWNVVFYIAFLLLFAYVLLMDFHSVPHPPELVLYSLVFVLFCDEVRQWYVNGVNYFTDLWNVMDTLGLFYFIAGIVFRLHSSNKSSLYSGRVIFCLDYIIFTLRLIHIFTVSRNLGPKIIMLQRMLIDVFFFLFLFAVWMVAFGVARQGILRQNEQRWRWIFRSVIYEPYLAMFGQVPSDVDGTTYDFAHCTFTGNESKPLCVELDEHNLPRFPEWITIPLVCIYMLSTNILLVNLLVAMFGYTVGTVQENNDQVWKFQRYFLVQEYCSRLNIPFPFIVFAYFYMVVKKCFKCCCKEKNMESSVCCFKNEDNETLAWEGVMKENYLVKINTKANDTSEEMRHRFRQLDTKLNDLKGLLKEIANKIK
In words: Luminescence readout assay for measuring intracellular calcium, icilin activation. In kind it is cell-based. To be noted: CHO cells expressing human TRPM8, aequorin luminescence, 1 μM icilin activation; read-out: hTRPM8 IC50. Summed up:
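The read-out was luminescence reporting intracellular calcium, recorded by a CCD-based luminometer. Compounds were preincubated for 2.5 min before agonist challenge with 1 μM icilin. Human TRPM8 was expressed in a stable T-REx CHO line, induced with 0.5 μg/mL tetracycline the day before.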
A general note: Calcium flux is commonly read through the fluorescence of an indicator in the cells.
`O=C(N[C@@H](c1ccc(OC(F)(F)F)c(F)c1)c1ncccc1F)c1ccc(=O)n(C[C@@H](O)C(F)(F)F)c1` [Example 409, N-((S)-(3-fluoro-4-(trifluoromethoxy)phenyl)(3-fluoropyridin-2-yl)methyl)-6-oxo-1-((R)-3,3,3-trifluoro-2-hydroxypropyl)-1,6-dihydropyridine-3-carboxamide]: the concentration for half-maximal inhibition (IC50) came to 0.0892 µM.

As for `O=C(N[C@@H](c1ccc(C(F)(F)F)cc1)c1ncccc1C(F)(F)F)c1cc2ccccc2s1` [Example 222, (S)-N-((4-(trifluoromethyl)phenyl)(3-(trifluoromethyl)pyridin-2-yl)methyl)benzo[b]thiophene-2-carboxamide], the IC50 was determined as 0.119 µM.

As to `O=C(N[C@@H](c1ccc(OC(F)(F)F)c(F)c1)c1ncccc1F)c1c[nH]c(=O)cn1` [Example 353, (S)-N-((3-fluoro-4-(trifluoromethoxy)phenyl)(3-fluoropyridin-2-yl)methyl)-5-oxo-4,5-dihydropyrazine-2-carboxamide], the IC50 is 0.0277 µM.

Turning to `COc1cccc2cc([C@H](NC(=O)c3ccc4cccnc4c3)c3ncccc3C(F)(F)F)cnc12` [Example 23, (S)-N-((8-methoxyquinolin-3-yl)(3-(trifluoromethyl)pyridin-2-yl)methyl)quinoline-7-carboxamide], the half-maximal inhibitory concentration (IC50) was found to be 1.06 µM.

On to `O=C(N[C@@H](c1ccc(OC(F)(F)F)c(F)c1)c1ncccc1F)c1c[nH]c(=O)c(Cl)c1` [Example 401, (S)-5-chloro-N-((3-fluoro-4-(trifluoromethoxy)phenyl)(3-fluoropyridin-2-yl)methyl)-6-oxo-1,6-dihydropyridine-3-carboxamide], for which the IC50 stood at 0.0128 µM.

Turning to `O=C(N[C@@H](c1ccc(C(F)(F)F)cc1)c1ncccc1C(F)(F)F)c1ccc(C(=O)O)c(Br)c1` [Example 100, (S)-2-bromo-4-(((4-(trifluoromethyl)phenyl)(3-(trifluoromethyl)pyridin-2-yl)methyl)carbamoyl)benzoic acid], the IC50 came out at 0.0615 µM.

As for `O=C(N[C@@H](c1ccc(OC(F)(F)F)c(F)c1)c1ncccc1F)c1ccc2oc(=O)[nH]c2n1` [Example 425, (S)—N-((3-Fluoro-4-(trifluoromethoxy)phenyl)(3-fluoropyridin-2-yl)methyl)-2-oxo-2,3-dihydrooxazolo[4,5-b]pyridine-5-carboxamide], the IC50 stood at 0.0105 µM.

`O=C(N[C@@H](c1ccc(OC(F)(F)F)c(F)c1)c1ccc(F)cn1)c1ccc(=O)[nH]c1` [Example 292, (S)-N-((3-fluoro-4-(trifluoromethoxy)phenyl)(5-fluoropyridin-2-yl)methyl)-6-oxo-1,6-dihydropyridine-3-carboxamide]: the half-inhibitory concentration (IC50) amounted to 0.0524 µM.

With `O=C(N[C@@H](c1ccc(C(F)(F)F)cc1)c1ncccc1C(F)(F)F)c1ccc(C(=O)O)nc1` [Example 285, (S)-5-(((4-(Trifluoromethyl)phenyl)(3-(trifluoromethyl)-pyridin-2-yl)methyl)carbamoyl)picolinic Acid 2,2,2-trifluoroacetate], the IC50 is 2.16 µM.

Consider `C[C@H](O)Cn1cc(C(=O)N[C@@H](c2ccc(C(F)(F)F)cc2)c2ncccc2F)ccc1=O` [Example 300, N-((S)-(3-fluoropyridin-2-yl)(4-(trifluoromethyl)phenyl)methyl)-1-((S)-2-hydroxypropyl)-6-oxo-1,6-dihydropyridine-3-carboxamide], for which the IC50 amounted to 0.0697 µM.

For the molecule `COc1ncccc1C(=O)N[C@@H](c1ccc(C(F)(F)F)cc1)c1ncccc1C(F)(F)F` [Example 29], the IC50 came to 0.0324 µM.

Regarding `Cc1cccnc1[C@@H](NC(=O)c1ccc(=O)[nH]c1)c1ccc(OC(F)(F)F)c(F)c1` [Example 347, (S)-N-((3-fluoro-4-(trifluoromethoxy)phenyl)(3-methylpyridin-2-yl)methyl)-6-oxo-1,6-dihydropyridine-3-carboxamide], the concentration for half-maximal inhibition (IC50) stood at 0.01 µM.

Take `O=C(N[C@@H](c1ccc(C(F)(F)F)c(F)c1)c1ncccc1C(F)(F)F)c1ccc2ncccc2c1` [Example 130, (S)-N-((3-fluoro-4-(trifluoromethyl)phenyl)(3-(trifluoromethyl)pyridin-2-yl)methyl)quinoline-6-carboxamide bis (2,2,2-trifluoroacetate)]: the 50% inhibitory concentration (IC50) came to 0.0247 µM.

Regarding `CS(=O)(=O)Nc1ccc(C(=O)N[C@@H](c2ccc(C(F)(F)F)cc2)c2ncccc2F)cc1` [Example 213, (S)-N-((3-fluoropyridin-2-yl)(4-(trifluoromethyl)phenyl)methyl)-4-(methylsulfonamido)benzamide], the IC50 came out at 0.043 µM.

In the case of `COC(=O)c1ccc(C(=O)N[C@@H](c2ccc(C(F)(F)F)cc2)c2ncccc2C(F)(F)F)cc1` [Example 140, (S)-methyl 4-(((4-(trifluoromethyl)phenyl)(3-(trifluoro-methyl)pyridin-2-yl)methyl)carbamoyl)benzoate], the 50% inhibitory concentration (IC50) was 0.0527 µM.

With `Cc1cc([C@H](NC(=O)c2ccc(=O)n(C)c2)c2ncccc2F)ccc1F` [Example 339, (S)-N-((4-fluoro-3-methylphenyl)(3-fluoropyridin-2-yl)methyl)-1-methyl-6-oxo-1,6-dihydropyridine-3-carboxamide], the IC50 came out at 0.915 µM.

With `O=C(N[C@@H](c1ccc(C(F)(F)F)cc1)c1ncccc1F)c1ccc2[nH]c(=O)[nH]c2c1` [Example 177, (S)-N-((3-fluoropyridin-2-yl)(4-(trifluoromethyl)phenyl)methyl)-2-oxo-2,3-dihydro-1H-benzo[d]imidazole-5-carboxamide], the half-maximal inhibitory concentration (IC50) stood at 0.0208 µM.

As for `Cn1cc(C(=O)N[C@@H](c2ccc(OC(F)(F)F)c(F)c2)c2ccccn2)ccc1=O` [Example 294, (S)-N-((3-fluoro-4-(trifluoromethoxy)phenyl)(pyridin-2-yl)methyl)-1-methyl-6-oxo-1,6-dihydropyridine-3-carboxamide], the half-inhibitory concentration (IC50) came to 0.0145 µM.

With `CC(=O)Oc1ccc(C(=O)N[C@@H](c2ccc(C(F)(F)F)cc2)c2ncccc2F)cc1N` [Example 431, (S)-2-Amino-4-(((3-fluoropyridin-2-yl)(4-(trifluoromethyl)phenyl)methyl)carbamoyl)phenyl Acetate], the IC50 came out at 0.0564 µM.

Take `O=C(N[C@@H](c1ccc(OC(F)(F)F)c(F)c1)c1ncccc1F)c1ccc(=O)n(CC2(O)CC2)c1` [Example 407, (S)-N-((3-fluoro-4-(trifluoromethoxy)phenyl)(3-fluoropyridin-2-yl)methyl)-1-((1-hydroxycyclopropyl)methyl)-6-oxo-1,6-dihydropyridine-3-carboxamide]: the IC50 was found to be 0.0596 µM.

In the case of `Cn1cc(C(=O)N[C@@H](c2ccc(Cl)c(F)c2)c2ncccc2F)ccc1=O` [Example 345, (S)-N-((4-chloro-3-fluorophenyl)(3-fluoropyridin-2-yl)methyl)-1-methyl-6-oxo-1,6-dihydropyridine-3-carboxamide], the half-inhibitory concentration (IC50) is 0.102 µM.

In the case of `O=C(N[C@@H](c1ccc(C(F)(F)F)cc1)c1ncccc1C(F)(F)F)c1cc[nH]c(=O)c1` [Example 44, (S)-2-hydroxy-N-((4-(trifluoromethyl)phenyl)(3-(trifluoromethyl)pyridin-2-yl)methyl)isonicotinamide], the IC50 was found to be 0.229 µM.

For `O=C(N[C@@H](c1ccc(C(F)(F)F)cc1)c1ncccc1C(F)(F)F)c1ccc(F)cc1` [Example 183, (S)-4-fluoro-N-((4-(trifluoromethyl)phenyl)(3-(trifluoromethyl)pyridin-2-yl)methyl)benzamide], the 50% inhibitory concentration (IC50) was 0.0396 µM.

Turning to `O=C(N[C@@H](c1ccc(C(F)(F)F)cc1)c1ncccc1C(F)(F)F)c1ccc(OC(F)(F)F)cc1` [Example 231, (S)-4-(trifluoromethoxy)-N-((4-(trifluoromethyl)phenyl)(3-(trifluoromethyl)pyridin-2-yl)methyl)benzamide], the IC50 was 0.461 µM.

Take `CCCN1C(=O)c2ccc(C(=O)N[C@@H](c3ccc(C(F)(F)F)cc3)c3ncccc3C(F)(F)F)cc2C1=O` [Example 269, (S)-1,3-Dioxo-2-propyl-N-((4-(trifluoromethyl)phenyl)(3-(trifluoromethyl)pyridin-2-yl)methyl)isoindoline-5-carboxamide]: the IC50 stood at 0.136 µM.

Regarding `O=C(Cc1ccncc1)N[C@@H](c1ccc(OC(F)(F)F)c(F)c1)c1ncccc1F` [Example 290, (S)-N-((3-fluoro-4-(trifluoromethoxy)phenyl)(3-fluoropyridin-2-yl)methyl)-2-(pyridin-4-yl)acetamide], the 50% inhibitory concentration (IC50) was 0.944 µM.

Turning to `O=C(N[C@@H](c1ccc(C(F)(F)F)cc1)c1ncccc1F)c1ccccn1` [Example 194, (S)-N-((3-fluoropyridin-2-yl)(4-(trifluoromethyl)phenyl)methyl)picolinamide], the concentration for half-maximal inhibition (IC50) came to 0.0756 µM.

For `CS(=O)(=O)c1cccc(C(=O)N[C@@H](c2ccc(C(F)(F)F)cc2)c2ncccc2F)c1` [Example 216, (S)-N-((3-fluoropyridin-2-yl)(4-(trifluoromethyl)phenyl)methyl)-3-(methylsulfonyl)benzamide], the concentration for half-maximal inhibition (IC50) amounted to 0.143 µM.

`Cc1ccnn1CC(=O)N[C@@H](c1ccc(C(F)(F)F)cc1)c1ncccc1C(F)(F)F` [Example 153, (S)-2-(5-methyl-1H-pyrazol-1-yl)-N-((4-(trifluoromethyl)phenyl)(3-(trifluoromethyl)pyridin-2-yl)methyl)acetamide]: the IC50 was 0.373 µM.

For the molecule `COc1ccc(C(=O)NC(c2ccc(C(F)(F)F)cc2)c2ncccc2F)cn1` (centres unmarked) [Example 35, N-((3-fluoropyridin-2-yl)(4-(trifluoromethyl)phenyl)methyl)-6-methoxynicotinamide], the half-maximal inhibitory concentration (IC50) is 0.0196 µM.

Turning to `O=C(N[C@@H](c1ccc2ccccc2c1)c1ncccc1C(F)(F)F)c1ccc2cccnc2c1` [Example 15, (S)-N-(naphthalen-2-yl(3-(trifluoromethyl)pyridin-2-yl)methyl)quinoline-7-carboxamide], the concentration for half-maximal inhibition (IC50) is 0.117 µM.

Turning to `COc1cncc(C(=O)N[C@@H](c2ccc(C(F)(F)F)cc2)c2ncccc2C(F)(F)F)c1` [Example 38, (S)-5-methoxy-N-((4-(trifluoromethyl)phenyl)(3-(trifluoromethyl)pyridin-2-yl)methyl)nicotinamide], the IC50 stood at 0.0777 µM.

As a reminder, the IC50 is the point on the concentration scale where inhibition reaches its midpoint.

The values above are taken from patent US8710043B2, “TRPM8 antagonists and their use in treatments” (Amgen Inc., priority 2011, dated 2014).
